Laboratory results as given in PubChem BioAssay (NCI).
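Each compound was tested at five concentrations against cells in 96-well plates for 48 hours. TGI: concentration producing complete growth inhibition.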

Assays:
Assay in all cases: growth of human tumour cells (NCI), 48 h
786-0 renal = test system: 786-0 renal
A549 NSCLC = test system: A549 NSCLC
ACHN renal = test system: ACHN renal
BT-549 breast = test system: BT-549 breast
CAKI-1 renal = test system: CAKI-1 renal
CCRF-CEM leukemia = test system: CCRF-CEM leukemia
COLO 205 colon = test system: COLO 205 colon
DU-145 prostate = test system: DU-145 prostate
EKVX NSCLC = test system: EKVX NSCLC
HCC-2998 colon = test system: HCC-2998 colon
HCT-116 colon = test system: HCT-116 colon
HCT-15 colon = test system: HCT-15 colon
HL-60(TB) leukemia = test system: HL-60(TB) leukemia
HOP-62 NSCLC = test system: HOP-62 NSCLC
HOP-92 NSCLC = test system: HOP-92 NSCLC
HS 578T breast = test system: HS 578T breast
HT29 colon = test system: HT29 colon
IGROV1 ovarian = test system: IGROV1 ovarian
K-562 leukemia = test system: K-562 leukemia
KM12 colon = test system: KM12 colon
LOX IMVI melanoma = test system: LOX IMVI melanoma
M14 melanoma = test system: M14 melanoma
MALME-3M melanoma = test system: MALME-3M melanoma
MCF7 breast = test system: MCF7 breast
MDA-MB-435 = test system: MDA-MB-435
MDA-N = test system: MDA-N
MOLT-4 leukemia = test system: MOLT-4 leukemia
NCI-H226 lung = test system: NCI-H226 lung
NCI-H23 lung = test system: NCI-H23 lung
NCI-H522 lung = test system: NCI-H522 lung
NCI/ADR-RES ovarian = test system: NCI/ADR-RES ovarian
OVCAR-3 ovarian = test system: OVCAR-3 ovarian
OVCAR-4 ovarian = test system: OVCAR-4 ovarian
OVCAR-5 ovarian = test system: OVCAR-5 ovarian
OVCAR-8 ovarian = test system: OVCAR-8 ovarian
PC-3 prostate = test system: PC-3 prostate
RPMI-8226 leukemia = test system: RPMI-8226 leukemia
RXF 393 renal = test system: RXF 393 renal
SF-268 CNS = test system: SF-268 CNS
SF-539 CNS = test system: SF-539 CNS
SK-MEL-2 melanoma = test system: SK-MEL-2 melanoma
SK-MEL-28 melanoma = test system: SK-MEL-28 melanoma
SK-MEL-5 melanoma = test system: SK-MEL-5 melanoma
SK-OV-3 ovarian = test system: SK-OV-3 ovarian
SN12C renal = test system: SN12C renal
SNB-19 CNS = test system: SNB-19 CNS
SNB-75 CNS = test system: SNB-75 CNS
SR leukemia = test system: SR leukemia
SW-620 colon = test system: SW-620 colon
T-47D breast = test system: T-47D breast
TK-10 renal = test system: TK-10 renal
U251 CNS = test system: U251 CNS
UACC-257 melanoma = test system: UACC-257 melanoma
UACC-62 melanoma = test system: UACC-62 melanoma
UO-31 renal = test system: UO-31 renal
MDA-MB-231 breast = test system: MDA-MB-231 breast
NCI-H460 lung = test system: NCI-H460 lung
SF-295 CNS = test system: SF-295 CNS
A498 renal = test system: A498 renal

Measured: TGI

CCCNC(=O)Cn1c(C)cc2ccccc21
not listed: MDA-MB-231 breast | NCI-H460 lung | SF-295 CNS | A498 renal
> 100 µM: all other assays above

Cc1cc(O)c(C=NC(=S)c2ccccc2)c(=O)o1
not listed: CCRF-CEM leukemia | HL-60(TB) leukemia | HS 578T breast | K-562 leukemia | MALME-3M melanoma | NCI-H522 lung | RPMI-8226 leukemia | RXF 393 renal | SF-268 CNS | SR leukemia | A498 renal
> 100 µM: all other assays above

COC(=O)C(Cc1c(C2Nc3ccccc3C2CC(NC(C)=O)C(=O)OC)[nH]c2ccccc12)NC(C)=O (configuration not stated)
not listed: HCC-2998 colon | MCF7 breast | OVCAR-4 ovarian | SR leukemia
> 100 µM: all other assays above

Cc1cn([C@H]2C[C@@H]3[C@@H](COC(CCl)N3O)O2)c(=O)[nH]c1=O (some centres not stated)
not listed: ACHN renal | HCC-2998 colon | HOP-92 NSCLC | NCI-H23 lung | MDA-MB-231 breast
> 100 µM: all other assays above
